# Measured values taken from patent publication US20240099298A1, “BIOINSECTICIDAL COMPOSITIONS CONTAINING MONOTERPENES AND METHODS OF USE THEREOF” (priority 2017, published 2024).
# Structures can show the parent of a compound that is named as a salt. Where two headings read alike, the source gives them in different places. Marks after values point to notes of the source that are not given here.
# Legend:
# [1] = tested on: adult T. palmi; settings: cited from earlier work
# [2] = cited from earlier work
# [3] = tested on: Megalurothrips usitatus (flower Thrips); settings: for activity against flower Thrips in preliminary screening: adult M. usitatus, 24 hours of fumigation in 1-L flasks; for mortality: in vivo
# [4] = tested on: B. cucuribitae (melon fly); assay: Median lethal time (LT50) test, melon fly; assay type: in vivo, Bactrocera cucuribitae
# Description: (§1) All treatments and controls were in triplicate.
# (§2) Toxicity of Monoterpenes as Fumigants. […] Therefore, to determine how fast the monoterpenes act as fumigants, it was necessary to determine their LT50 values for the target organisms.
# [5] = tested on: H. picinus (Nitidulid beetle); assay: Median lethal time (LT50) test, Nitidulid beetle; assay type: in vivo, Haptoncus picinus
# Description: as §1, §2
# [6] = tested on: A. japonicus (parasitic wasp); assay: Median lethal time (LT50) test, parasitic wasp (natural enemy); settings: non-target parasitic wasp
# Procedure: (§3) Insect Egg Parasitic Wasp (Natural Enemy). […] Both species were purchased from a commercial source. One- to two-day-old adults (after eclosion) were used for fumigation tests.
# Median Lethal Time (LT50) and Median Knockdown Concentration (KC50) Tests. Five species of adult insects or natural enemies were tested for LT50 values including melon fly (B. cucuribitae), red flour beetle (T. castaneum), Nitidulidae beetle (H. picinus), parasitic wasp (A. japonicus) and housefly (M. domestica). For each treatment and control, 20 insects at the developmental stages described above were placed individually without food in a 1-L wide-mouth glass bottle (height 19.5 cm, bottom diameter 10.5 cm, mouth i.d. 5.5 cm) containing pieces of tissue paper. […] Five different concentrations of the test chemicals were placed on pieces of cellulose-based qualitative filter paper. Each of the filter papers was placed in a bottle to have 5 appropriate concentrations in serial dilutions. DDVP was the positive control, and no chemical treatments were the negative control. All treatments and controls were in triplicate. Mortality was observed periodically in a 10-30 minute interval for 2 days or until all insects died. The death was defined as no movement when the insects were touched.
# [7] = tested on: M. domestica (housefly); assay: Median lethal time (LT50) test, housefly; assay type: in vivo, Musca domestica
# Description: as §1, §2
# [8] = tested on: T. castaneum (red flour beetle); assay: Median lethal time (LT50) test, red flour beetle; assay type: in vivo, Tribolium castaneum
# Description: as §1, §2
# [9] = tested on: Aedes aegypti (mosquito); assay: Median knockdown concentration (KC50) test, mosquito; assay type: in vivo
# Description: as §1
# (§4) Knockdown Activity of Monoterpenes.
# [10] = tested on: Musca domestica (housefly); assay: Median knockdown concentration (KC50) test, housefly; assay type: in vivo; settings: for KC50 (fiducial limits): Musca domestica; for time within which the insects responded: houseflies
# Description: as §1, §4
# [11] = tested on: T. chilonis (parasitic wasp); settings: non-target parasitic wasp, mortality after 15 minutes of exposure
# Description: as §3
# (§5) Median Lethal Concentration Tests. […] The species tested included Thrips (M. usitatus), spider mite (T. cinnabarinus), melon fly (B. cucuribitae), cockroach (B. lateralis), housefly (M. domestica), mosquito (A. aegypti), parasitic wasp (T. chilonis) and fruit fly (Drosophila melanogaster). After being exposed to the test chemicals for one hour, adult Thrips, spider mites, and roaches were transferred to another flask. In addition to fresh water, adult Thrips, spider mites, and roaches were then respectively fed with cowpea, fresh blade of eggplant, and peanut oil via filter. […] Mortality of melon fly was observed after three hours of exposure.
# [12] = tested on: Megalurothrips usitatus (Bagrall) (thrips); assay: Median lethal concentration fumigation test, thrips; settings: adult thrips, exposed one hour, mortality observed in 24 hours
# Description: as §5
# [13] = tested on: Musca domestica (Linnaeus) (housefly)
# Description: as §5
# [14] = tested on: Blatta lateralis (Walker) (cockroach)
# Description: as §5
# [15] = tested on: Bactrocera cucuribitae (Coquillett) (melon fly)
# Description: as §5
# [16] = tested on: Aedes aegypti (Linnaeus) (mosquito)
# Description: as §5
# [17] = tested on: Tetranychus cinnabarinus (Boisduval) (spider mites)
# Description: as §5
# [18] = tested on: Drosophila melanogaster (fruit fly); assay: Median lethal concentration fumigation test, fruit fly; assay type: in vivo; settings: mortality after 280 minutes
# [19] = tested on: leafhoppers, Cicadella viridi linne; assay: Field test, leafhoppers; assay type: in vivo; settings: Leafhopper
# Procedure: (§6) Field Tests. […] Therefore, it was determined whether this compound could control Thrips in the field. Linalool was in 20-, 10- and 5.0-fold dilutions with edible peanut oil. The positive control was spinetoram (Dow AgroSciences) in 3000-fold dilution.
# (§7) The field experimental plots were 15 m^2 in size, in triplicate. A designated sprayer (Dia spray No. 3530, Japan Furlpla Co., Japan) was used to spray the solvent only negative control in this experiment. Grub density was calculated at every plot prior to application. During the experiments, the field was also infested with leafhoppers, so that the control efficacy of leafhoppers was also assessed. The number of adult Thrips and leafhoppers was assessed in the treatment and control areas at 1, 3, 5, 7, 14 and 21 days after application. The decline of the adult Thrips and leafhoppers was calculated to assess the control efficacy of linalool.
# A 10-fold dilution of linalool was also the most efficacious application, compared to 5- and 20-fold dilutions, in controlling leafhoppers, Cicadella viridi linne (Hemiptera: Cicadellidae). At 7 and 14 days after treatment, the control efficacy of the 10-fold dilution of linalool reached 96% and 98%, respectively.
# [20] = tested on: flower Thrips; assay: Field test in cowpea fields, thrips; assay type: in vivo
# Procedure: as §6, §7
# Field Applications. To assess the use of monoterpenes in the field, linalool was tested for control of flower Thrips in cowpea fields. […] At 1 and 3 days after treatment, control efficacy respectively reached 98% and 100% for the 10-fold dilution (Table 15). By comparison, the positive control, a 3000-fold dilution of spinetoram, reached 70% and 94% at 1 and 3 days after treatment, respectively (Table 17).
# [21] = adult housefly, exposed one hour, mortality in 24 hours
# [22] = cockroach second instar nymphs, exposed one hour
# [23] = adult mosquito, exposed 30 minutes, mortality in 24 hours
molecule,measurement,setting,value
"CC12CCC(CC1=O)C2(C)C (racemic) [(±)-camphor, reference compound]","LC50, fumigation toxicity",[1],9.7 µg/mL
"CC12CCC(CC1)C(C)(C)O2 [1,8-Cineole]","LC50, fumigation toxicity",[1],16.7 µg/mL
same,Vp (Pa)/T (° C.),[2]; T 25 °C,253.31/25 Pa
C=C(C)[C@H]1CC=C(C)CC1 [(+)-Limonene],activity against flower Thrips in preliminary screening,[3],not active
same,Vp (Pa)/T (° C.),[2]; T 25 °C,263.97/25 Pa
C=C(C)[C@@H]1CC=C(C)CC1 [(−)-Limonene],activity against flower Thrips in preliminary screening,[3],not active
same,Vp (Pa)/T (° C.),[2]; T 25 °C,206.65/25 Pa
C=C[C@](C)(O)CCC=C(C)C [(−)-Linalool],Vp (Pa)/T (° C.),[2]; T 23.5 °C,21.20/23.5 Pa
CC(C)=O [Acetone],LT50 (fiducial limits),[4],>48^a ^ hour
same,LT50 (fiducial limits),[5],>48^a ^ hour
same,LT50 (fiducial limits) against A. japonicus,[6],>48^a hour
same,LT50 (fiducial limits),[7],>48^a ^ hour
same,mortality,[3],No mortality
same,LT50 (fiducial limits),[8],>48^a ^ hour
Cc1ccc(C(C)C)cc1O [Carvacrol],LT50 (fiducial limits),[4],2.49 h
same,KC50 (fiducial limits),[9]; 10 Minutes,>243 µg/mL
same,KC50 (fiducial limits),[9]; 20 Minutes,6.0 µg/mL
same,KC50 (fiducial limits),[9]; 30 Minutes,>243 µg/mL
same,LT50 (fiducial limits),[5],1.94 h
same,KC50 (fiducial limits),[10]; 10 Minutes,>7600 µg/mL
same,KC50 (fiducial limits),[10]; 20 Minutes,>243 µg/mL
same,KC50 (fiducial limits),[10]; 30 Minutes,>243 µg/mL
same,time within which the insects responded,[10],≤ 10 min
same,LT50 (fiducial limits) against A. japonicus,[6],3.32 (2.05-7220) hour
same,LT50 (fiducial limits),[7],2.30 h
same,LC50 (fiducial limits) against T. chilonis,[11],826 µg/mL
same,LC90 (fiducial limits) against T. chilonis,[11],7.08 µg/mL
same,activity against flower Thrips in preliminary screening,[3],exhibit insecticidal activity
same,Vp (Pa)/T (° C.),[2]; T 25 °C,3.99/25 Pa
same,LT50 (fiducial limits),[8],9.95 h
same,LC50 (fiducial limits),[12],>19.2 µg/mL
same,LC90 (fiducial limits),[12],>19.2 µg/mL
same,LC50 (fiducial limits),[13]; [21],>243 µg/mL
same,LC90 (fiducial limits),[13]; [21],>243 µg/mL
same,LC50 (fiducial limits),[14]; [22],84.5 µg/mL
same,LC90 (fiducial limits),[14]; [22],118 µg/mL
same,LC50 (fiducial limits),[15]; melon fly,>243 µg/mL
same,LC90 (fiducial limits),[15]; melon fly,>243 µg/mL
same,LC50 (fiducial limits),[16]; [23],0.77 µg/mL
same,LC90 (fiducial limits),[16]; [23],3.92 µg/mL
same,LC50 (fiducial limits),"[17]; spider mites, exposed one hour",37.5 µg/mL
same,LC90 (fiducial limits),"[17]; spider mites, exposed one hour",510 µg/mL
ClC(Cl)Cl [Chloroform],LT50 (fiducial limits),[4],>48^a ^ hour
same,LT50 (fiducial limits),[5],>48^a ^ hour
same,LT50 (fiducial limits) against A. japonicus,[6],>48^a hour
same,LT50 (fiducial limits),[7],>48^a ^ hour
same,mortality,[3],No mortality
same,LT50 (fiducial limits),[8],>48^a ^ hour
"COP(=O)(OC)OC=C(Cl)Cl [DDVP 80%, 2,2-Dichlorovinyl dimethyl phosphate, reference compound]",LT50 (fiducial limits),[4],0.89 h
same,LC90 (fiducial limits),[18],0.002 ng/mL
same,KC50 (fiducial limits),[9]; 30 Minutes,>0.081 µg/mL
same,KC50 (fiducial limits),[10]; 20 Minutes,>2.7 µg/mL
same,KC50 (fiducial limits),[10]; 30 Minutes,>2.7 µg/mL
same,LT50 (fiducial limits) against A. japonicus,[6],0.41 (0.07-0.49) hour
same,LC90 (fiducial limits) against T. chilonis,[11],>3.75 µg/mL
same,LT50 (fiducial limits),[8],2.70 h
same,LC90 (fiducial limits),[12],1.85 µg/mL
same,LC90 (fiducial limits),[13]; [21],0.53 µg/mL
same,LC90 (fiducial limits),[14]; [22],9.51 µg/mL
same,LC90 (fiducial limits),[15]; melon fly,0.0014 µg/mL
same,LC90 (fiducial limits),[16]; [23],0.0028 µg/mL
same,LC90 (fiducial limits),"[17]; spider mites, exposed one hour",0.80 µg/mL
C=CCc1ccc(OC)cc1 [Estragole],LT50 (fiducial limits),[4],1.69 h
same,KC50 (fiducial limits),[9]; 10 Minutes,>8.1 µg/mL
same,KC50 (fiducial limits),[9]; 20 Minutes,2.32 µg/mL
same,KC50 (fiducial limits),[9]; 30 Minutes,>8.1 µg/mL
same,LT50 (fiducial limits),[5],0.60 h
same,KC50 (fiducial limits),[10]; 20 Minutes,>502 µg/mL
same,KC50 (fiducial limits),[10]; 30 Minutes,>243 µg/mL
same,LT50 (fiducial limits) against A. japonicus,[6],1.19 (1.02-1.37) hour
same,LT50 (fiducial limits),[7],1.04 h
same,LC50 (fiducial limits) against T. chilonis,[11],1.64 µg/mL
same,LC90 (fiducial limits) against T. chilonis,[11],34.9 µg/mL
same,activity against flower Thrips in preliminary screening,[3],exhibit insecticidal activity
same,LT50 (fiducial limits),[8],8.23 h
same,LC50 (fiducial limits),[12],0.24 µg/mL
same,LC90 (fiducial limits),[12],1.29 µg/mL
same,LC50 (fiducial limits),[12]; listed as estragole,0.241 µg/mL
same,LC90 (fiducial limits),[13]; [21],15.3 µg/mL
same,LC50 (fiducial limits),[13]; in vivo,5.89 µg/mL
same,LC90 (fiducial limits),[14]; [22],15.3 µg/mL
same,LC50 (fiducial limits),[14]; in vivo,24.1 µg/mL
same,LC50 (fiducial limits),[15]; in vivo,483 µg/mL
same,LC90 (fiducial limits),[15]; melon fly,953 µg/mL
same,LC90 (fiducial limits),[16]; [23],0.91 µg/mL
same,LC50 (fiducial limits),[16]; in vivo,0.25 µg/mL
same,LC50 (fiducial limits),[17]; in vivo,3.28 µg/mL
same,LC90 (fiducial limits),"[17]; spider mites, exposed one hour",21.0 µg/mL
C=CC(=C)CCC=C(C)C [Myrcene],activity against flower Thrips in preliminary screening,[3],not active
same,Vp (Pa)/T (° C.),[2]; T 25 °C,278.64/25 Pa
"CCOC=O [ethyl formate, reference compound]",LC50,"[3]; flower Thrips, positive fumigant control",greater than 9.2 μg/cm^3
C/C=C/c1ccc(OC)cc1 [trans-Anethole],LT50 (fiducial limits),[4],2.28 h
same,KC50 (fiducial limits),[9]; 10 Minutes,>8.1 µg/mL
same,KC50 (fiducial limits),[9]; 20 Minutes,4.84 µg/mL
same,KC50 (fiducial limits),[9]; 30 Minutes,4.05 µg/mL
same,LT50 (fiducial limits),[5],1.07 h
same,KC50 (fiducial limits),[10]; 30 Minutes,>243 µg/mL
same,time within which the insects responded,[10],≤ 30 min
same,LT50 (fiducial limits) against A. japonicus,[6],0.933 (0.73-1.11) hour
same,LT50 (fiducial limits),[7],2.01 h
same,activity against flower Thrips in preliminary screening,[3],exhibit insecticidal activity
same,LT50 (fiducial limits),[8],7.97 h
Spinetoram,Control Efficacy,[19]; 1 DAT,68%
same,Control Efficacy,[19]; 3 DAT,87%
same,Control Efficacy,[19]; 5 DAT,36%
same,Control Efficacy,[19]; 7 DAT,49%
same,Control Efficacy,[19]; 14 DAT,66%
same,Control Efficacy,[19]; 21 DAT,25%
same,Control Efficacy,[20]; 1 DAT,70%
same,Control Efficacy,[20]; 3 DAT,94%
same,Control Efficacy,[20]; 5 DAT,37%
same,Control Efficacy,[20]; 7 DAT,33%
same,Control Efficacy,[20]; 14 DAT,62%
same,Control Efficacy,[20]; 21 DAT,0%
